According to patent US20090186844A1, “SiRNA DELIVERY INTO MAMMALIAN NERVE CELLS” (priority 2003, published 2009):
Where a name gives a salt, the structure may show the parent alone.

What was measured:
[1] = test system: phrenic long-term facilitation (pLTF); assay: pLTF following intermittent hypoxia after intrathecal pretreatment; format: in vivo, rat; conditions: for effect on pLTF: one anesthetized rat each, intrathecal, 30 min prior to intermittent hypoxia, UO126 0.4 mg, KN62/KN93 2 mg
Procedure: The phrenic nerve was dissected, cut distally and desheathed. A laminectomy was performed over C2, and a silicone catheter (2 French, Access Technologies; Skokie, Ill.) connected to a 50 μl glass syringe (Hamilton; Reno Nev.) was advanced through a small hole in the dura at C2, such that the tip of the catheter lay over C4-C5. Following surgery, rats were converted to urethane anesthesia (1.6 g/kg, i.v.) and were paralyzed with pancuronium bromide (2.5 mg/kg). Supplemental doses of urethane were given as necessary. […] End-tidal PCO2 was monitored using a flow-through capnograph (Novametrix, Wallingford, Conn.). Periodically throughout the protocol, arterial blood was collected (0.3 ml) in a heparinized syringe to ensure that values remained constant (PaO2<45 mmHg in hypoxia, PaO2>120 mmHg in hyperoxia, PaCO2±1 mmHg from baseline value). Arterial PCO2 was corrected to the target range by adjusting ventilator frequency as necessary.
Ninety minutes after surgery, stable integrated phrenic discharge was established in hyperoxia (baseline; 50% O2, PaO2>120 mmHg), with CO2 added to the inspired gas so that PaCO2 was 2-3 mmHg above the CO2 apneic threshold (45 mmHg). In rats receiving intrathecal injections of vehicle or drug solutions, a bolus injection of 10-15 μl was given, and 30-35 min were allowed for drugs to penetrate the spinal cord prior to beginning protocols. Blood gases were measured before, during, and 15, 30 and 60 min post-intermittent hypoxia or hypercapnia, or at corresponding times in control rats (without hypoxia or hypercapnia).
Intrathecal injections of K252a were performed prior to intermittent hypoxia; K252a was prepared as described above. Intrathecal K252a (n=6) or vehicle (DMSO+artificial CSF; n=5) was delivered 30 min prior to intermittent hypoxia, and phrenic discharge was monitored continuously for 60 min post-intermittent hypoxia.

[2] = test system: phrenic motor output; assay: Phrenic activity following intrathecal BDNF injections; format: in vivo, rat; conditions: 90 min post-injection
Procedure: (§1) Surgical procedures have been described elsewhere (7). Rats were anesthetized with isoflurane (2.5% in 50% O2), vagotomized and pump-ventilated (Harvard Apparatus, South Natick, Mass.). The phrenic nerve was dissected, cut distally and desheathed. A laminectomy was performed over C2, and a silicone catheter (2 French, Access Technologies; Skokie, Ill.) connected to a 50 μl glass syringe (Hamilton; Reno Nev.) was advanced through a small hole in the dura at C2, such that the tip of the catheter lay over C4-C5. Following surgery, rats were converted to urethane anesthesia (1.6 g/kg, i.v.) and were paralyzed with pancuronium bromide (2.5 mg/kg). Supplemental doses of urethane were given as necessary. […] End-tidal PCO2 was monitored using a flow-through capnograph (Novametrix, Wallingford, Conn.). […]
Respiratory-related activity was recorded in the phrenic nerve with a bipolar silver electrode. […] Phrenic activity was digitized, recorded and analyzed using the WINDAQ data acquisition system (DATAQ Instruments, Akron, Ohio).
An intrathecal catheter was placed and 10-13 μl solutions of BDNF (0.1 μg, n=5) or vehicle (artificial CSF+0.1% BSA; n=5) were injected. To determine if intrathecal BDNF injections unintentionally spread beyond the spinal cord to cranial motor pools, the hypoglossal nerve was also dissected, desheathed and recorded. […]

[3] = test system: phrenic burst amplitude; format: in vivo, rat
Procedure: To determine if MAP kinase activation is sufficient to facilitate phrenic burst amplitude, one anesthetized rat was intrathecally injected with anisomycin ([…]; 20 mM), a protein synthesis inhibitor that also non-specifically activates MAP kinases.

[4] = test system: BDNF protein concentration in ventral C3-C5; assay: Ventral C3-C5 BDNF protein concentration (ELISA) after intermittent hypoxia, intrathecal drug pretreatment; format: in vivo, rat; conditions: 60 min post-intermittent hypoxia, intrathecal methysergide 250 microgram/kg or emetine 1 μg/kg 30 min prior
Procedure: as §1
Ninety minutes after surgery, stable integrated phrenic discharge was established in hyperoxia (baseline; 50% O2, PaO2>120 mmHg), with CO2 added to the inspired gas so that PaCO2 was 2-3 mmHg above the CO2 apneic threshold (45 mmHg). […] Blood gases were measured before, during, and 15, 30 and 60 min post-intermittent hypoxia or hypercapnia, or at corresponding times in control rats (without hypoxia or hypercapnia). […]

[5] = test system: phrenic LTF; assay: pLTF following sustained hypoxia after protein phosphatase inhibition; format: in vivo, rat; conditions: okadaic acid 0.15 mg; 20 mM intrathecally to C4 30 min prior to sustained hypoxia (25 min)
Procedure: Air, O2 and/or N2 were mixed to achieve the desired pattern of inspired oxygen concentration. […] Control groups receiving similar surgery or treatments, but not receiving hypoxia, […].
Accordingly, in one anesthetized rat, […] okadaic acid (0.15 mg; 20 mM), a protein phosphatase 1/2A (PP1 and PP2A) inhibitor, was delivered intrathecally to C4 30 min prior to sustained hypoxia (25 min). […] This finding has been successfully repeated in three additional rats.

[6] = target: TrkB receptor (rat) (UniProt Q63604); assay: cell-based or functional assay
[7] = test system: hypoglossal nerve activity; assay: Hypoglossal nerve activity following intrathecal BDNF injections; format: in vivo, rat; conditions: intrathecal BDNF 0.1 μg; 90 min post-injection
Procedure: An intrathecal catheter was placed and 10-13 μl solutions of BDNF (0.1 μg, n=5) or vehicle (artificial CSF+0.1% BSA; n=5) were injected. To determine if intrathecal BDNF injections unintentionally spread beyond the spinal cord to cranial motor pools, the hypoglossal nerve was also dissected, desheathed and recorded. […] In another group of rats, two intrathecal catheters were placed over C4, and a bolus injection of the tyrosine kinase inhibitor K252a was given 10 min prior to BDNF injection (BDNF+K252a; BDNF=0.1 μg; K252a=0.15 microgram, n=3). Recombinant human BDNF (Promega Corporation, Madison, Wis.) was dissolved in artificial CSF+0.1% bovine serum albumin (BSA). K252a (Calbiochem; San Diego, Calif.) was initially dissolved in dimethylsulfoxide (DMSO; 100 μg K252a in 1.5 ml DMSO) and frozen in 200 μl aliquots. Prior to experimentation, 0.8 ml artificial CSF was added to a 200 μl aliquot of K252a/DMSO solution, of which 10-15 μl was delivered intrathecally (final concentration of K252a=0.13-0.2 μg; 28 μM). Vehicle delivery was as described above (DMSO+artificial CSF), except K252a was not added. At 30, 60 and 90 min post-injection, arterial blood gases were analyzed to ensure that PaO2 and PaCO2 levels were similar to pre-injection values.

TrkB receptor (rat), sequence (Q63604 32-821): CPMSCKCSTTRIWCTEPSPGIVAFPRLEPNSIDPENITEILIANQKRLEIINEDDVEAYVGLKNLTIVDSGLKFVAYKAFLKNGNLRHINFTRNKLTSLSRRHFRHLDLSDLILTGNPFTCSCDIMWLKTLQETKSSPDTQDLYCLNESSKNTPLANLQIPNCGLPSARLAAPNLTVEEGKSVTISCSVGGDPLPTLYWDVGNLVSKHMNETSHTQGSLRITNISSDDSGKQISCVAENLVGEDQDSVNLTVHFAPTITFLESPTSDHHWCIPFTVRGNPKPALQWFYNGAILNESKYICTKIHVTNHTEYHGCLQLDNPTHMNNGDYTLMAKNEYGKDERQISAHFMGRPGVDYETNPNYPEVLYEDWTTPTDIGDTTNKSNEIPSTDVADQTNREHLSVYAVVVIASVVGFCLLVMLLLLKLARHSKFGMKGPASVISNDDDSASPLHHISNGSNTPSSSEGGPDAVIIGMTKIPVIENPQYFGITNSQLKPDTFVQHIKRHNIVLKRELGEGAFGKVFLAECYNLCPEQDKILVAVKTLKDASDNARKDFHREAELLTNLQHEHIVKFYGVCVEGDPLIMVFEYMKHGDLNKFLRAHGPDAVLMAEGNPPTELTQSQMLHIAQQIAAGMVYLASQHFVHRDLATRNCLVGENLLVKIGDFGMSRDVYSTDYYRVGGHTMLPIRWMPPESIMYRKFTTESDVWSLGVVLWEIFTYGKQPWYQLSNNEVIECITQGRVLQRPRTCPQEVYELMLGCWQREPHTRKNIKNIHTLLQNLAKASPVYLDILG

COC(=O)[C@@]1(O)C[C@H]2O[C@]1(C)n1c3ccccc3c3c4c(c5c6ccccc6n2c5c31)C(=O)NC4 [K252a]
phrenic burst amplitude increase from baseline (pLTF) ([1]; 60 min post-intermittent hypoxia, intrathecal K252a 0.13-0.2 μg 30 min prior): 25±6% | BDNF-induced phrenic facilitation after K252a pre-treatment, change from baseline ([2]; intrathecal K252a 10 min prior to BDNF 0.1 μg): 9±10%

CN([C@@H](Cc1ccc(OS(=O)(=O)c2cccc3cnccc23)cc1)C(=O)N1CCN(c2ccccc2)CC1)S(=O)(=O)c1cccc2cnccc12 [KN62]
effect on pLTF [1]: did not block pLTF

COc1ccc(S(=O)(=O)N(CCO)c2ccccc2CN(C)C/C=C/c2ccc(Cl)cc2)cc1 [KN93]
effect on pLTF [1]: did not block pLTF

N#CC(=C(/N)Sc1ccccc1N)/C(C#N)=C(/N)Sc1ccccc1N [UO126]
effect of pretreatment on anisomycin-induced increase in phrenic amplitude ([3]; UO126 0.4 mg, 100 mM pretreatment, n=1): prevented the effect | effect on pLTF [1]: blocked pLTF

COc1ccc(C[C@H]2NC[C@H](O)[C@H]2OC(C)=O)cc1 [anisomycin]
phrenic burst amplitude increase above pre-injection levels ([3]; one anesthetized rat, intrathecal anisomycin 100 mg, 20 mM, thirty min post-injection): 60%

CC[C@H]1CN2CCc3cc(OC)c(OC)cc3[C@@H]2C[C@@H]1C[C@H]1NCCc2cc(OC)c(OC)cc21 [emetine]
change in ventral cervical BDNF concentration from corresponding drug control [4]: 19±11%

CC[C@@H](CO)NC(=O)[C@@H]1C=C2c3cccc4c3c(cn4C)C[C@H]2N(C)C1 [methysergide, methysergide maleate]
change in ventral cervical BDNF concentration from corresponding drug control [4]: −10±8%

C=C1[C@@H](O)[C@@H]2O[C@]3(CC[C@H](/C=C/[C@@H](C)[C@@H]4CC(C)=C[C@@]5(O[C@H](C[C@@](C)(O)C(=O)O)CC[C@H]5O)O4)O3)CC[C@H]2O[C@@H]1[C@@H](O)C[C@H](C)[C@H]1O[C@@]2(CCCCO2)CC[C@H]1C [okadaic acid]
pLTF 60 min following sustained hypoxia [5]: a modest pLTF was apparent

Recombinant human BDNF (Promega Corporation) (from UniProt P23560 129-247) (ligand)
integrated phrenic discharge (percent change from baseline) 90 min after intrathecal BDNF injection in anesthetized rats (% above baseline) [6]: 125

B1: BDNF: Recombinant human BDNF (Promega), brain-derived neurotrophic factor (protein)
chain: HSDPARRGELSVCDSISEWVTAADKKTAVDMSGGTVTVLEKVPVSKGQLKQYFYETKCNPMGYTKEGCRGIDKRHWNSQCRTTQSYVRALTMDSKKRIGWRFIRIDTSCVCTLTIKRGR
integrated phrenic discharge, change above baseline ([2]; intrathecal BDNF 0.1 μg): 125±25% | hypoglossal nerve activity, change from baseline [7]: 30±17%
